Assay results published in ChEMBL document CHEMBL1201861, “Genomics of Drug Sensitity in Cancer screening data, Wellcome Trust Sanger Institute”.
pIC50: −log10 of the molar value.

Tests used:
SW780 = test: cells; type: functional, cell-based, Homo sapiens;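 also: growth inhibition of the cells, read out with a cell viability assay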
Description: SANGER: Inhibition of human SW780 cell growth in a cell viability assay.

EPLC-272H = test: cells; type: functional, cell-based, Homo sapiens; details: Homo sapiens, EPLC-272H
Description: SANGER: Inhibition of human EPLC-272H cell growth in a cell viability assay.

OVCAR-5 = test: cells; type: functional, cell-based, Homo sapiens;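 also: growth inhibition of human OVCAR-5 cells, read out with a cell viability assay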
Description: SANGER: Inhibition of human OVCAR-5 cell growth in a cell viability assay.

SW13 = test: cells; type: functional, cell-based, Homo sapiens;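 also: IC50 is inhibition of SW13 cell growth, read out with a cell viability assay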
Description: SANGER: Inhibition of human SW13 cell growth in a cell viability assay.

U-251 = test: cells; type: functional, cell-based, Homo sapiens;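 also: growth inhibition of human U-251 cells, read out through a cell viability assay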
Description: SANGER: Inhibition of human U251 cell growth in a cell viability assay.

LK-2 = test: cells; type: functional, cell-based, Homo sapiens;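 also: growth inhibition of LK-2 cells, read out with a viability assay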
Description: SANGER: Inhibition of human LK-2 cell growth in a cell viability assay.

RD = test: cells; type: functional, cell-based, Homo sapiens
Description: SANGER: Inhibition of human RD cell growth in a cell viability assay.

MKN-28 = test: cells; type: functional, cell-based, Homo sapiens;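 also: cell viability assay read-out, IC50 reflects suppression of growth of human MKN-28 cells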
Description: SANGER: Inhibition of human MKN28 cell growth in a cell viability assay.

CAKI-1 = test: cells; type: functional, cell-based, Homo sapiens;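 also: growth inhibition of CAKI-1 cells, measured by a cell viability assay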
Description: SANGER: Inhibition of human CAKI-1 cell growth in a cell viability assay.

U2OS = test: cells; type: functional, cell-based, Homo sapiens, U-2-OS;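 also: growth inhibition of human U-2-OS cells, determined with a cell viability assay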
Description: SANGER: Inhibition of human U-2-OS cell growth in a cell viability assay.

BT-20 = test: cells; type: functional, cell-based, Homo sapiens;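 also: cell viability assay measuring suppression of growth in human BT-20 cells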
Description: SANGER: Inhibition of human BT-20 cell growth in a cell viability assay.

C3A = test: cells; type: functional, cell-based, Homo sapiens;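 also: growth inhibition of C3A human cells, quantified with a cell viability readout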
Description: SANGER: Inhibition of human C3A cell growth in a cell viability assay.

DBTRG-05MG = test: cells; type: functional, cell-based, Homo sapiens;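 also: cell viability assay measuring growth inhibition of human DBTRG-05MG cells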
Description: SANGER: Inhibition of human DBTRG-05MG cell growth in a cell viability assay.

Daoy = test: cells; type: functional, cell-based, Homo sapiens;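 also: daoy cell growth inhibition, read out as cell viability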
Description: SANGER: Inhibition of human Daoy cell growth in a cell viability assay.

M059J = test: cells; type: functional, cell-based, Homo sapiens;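 also: growth inhibition of M059J cells, read out with a cell viability assay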
Description: SANGER: Inhibition of human M059J cell growth in a cell viability assay.

NCI-H1793 = test: cells; type: functional, cell-based, Homo sapiens;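 also: cell growth inhibition, read out by a cell viability assay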
Description: SANGER: Inhibition of human NCI-H1793 cell growth in a cell viability assay.

SW1088 = test: cells; type: functional, cell-based, Homo sapiens;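 also: growth inhibition of human SW1088 cells, read out by a cell viability assay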
Description: SANGER: Inhibition of human SW1088 cell growth in a cell viability assay.

A673 = test: cells; type: functional, cell-based, Homo sapiens;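 also: growth inhibition of human A673 cells, read out through a cell viability assay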
Description: SANGER: Inhibition of human A673 cell growth in a cell viability assay.

SKG-IIIa = test: cells; type: functional, cell-based, Homo sapiens;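 also: cell growth inhibition, read out with a cell viability assay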
Description: SANGER: Inhibition of human SKG-IIIa cell growth in a cell viability assay.

NCI-H460 = test: cells; type: functional, cell-based, Homo sapiens;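 also: cell viability assay scoring growth inhibition of human NCI-H460 cells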
Description: SANGER: Inhibition of human NCI-H460 cell growth in a cell viability assay.

SCC-25 = test: cells; type: functional, cell-based, Homo sapiens;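 also: growth inhibition of SCC-25 cells, measured with a cell viability assay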
Description: SANGER: Inhibition of human SCC-25 cell growth in a cell viability assay.

SW626 = test: cells; type: functional, cell-based, Homo sapiens;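 also: growth inhibition of SW626 cells, measured with a cell viability assay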
Description: SANGER: Inhibition of human SW626 cell growth in a cell viability assay.

CAL-12T = test: cells; type: functional, cell-based, Homo sapiens;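 also: growth inhibition of human CAL-12T cells, read out with a cell viability assay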
Description: SANGER: Inhibition of human CAL-12T cell growth in a cell viability assay.

GDM-1 = test: cells; type: functional, cell-based, Homo sapiens;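 also: cell viability readout used to measure growth inhibition of human GDM-1 cells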
Description: SANGER: Inhibition of human GDM-1 cell growth in a cell viability assay.

RPMI-6666 = test: cells; type: functional, cell-based, Homo sapiens
Description: SANGER: Inhibition of human RPMI-6666 cell growth in a cell viability assay.

NCI-H2030 = test: cells; type: functional, cell-based, Homo sapiens;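 also: growth inhibition of human NCI-H2030 cells, read out by a cell viability assay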
Description: SANGER: Inhibition of human NCI-H2030 cell growth in a cell viability assay.

T-24 = test: cells; type: functional, cell-based, Homo sapiens;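 also: growth inhibition of T-24 cells, read out with a cell viability assay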
Description: SANGER: Inhibition of human T-24 cell growth in a cell viability assay.

PANC-03-27 = test: cells; type: functional, cell-based, Homo sapiens
Description: SANGER: Inhibition of human PANC-03-27 cell growth in a cell viability assay.

LU-99A = test: cells; type: functional, cell-based, Homo sapiens;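 also: growth inhibition of LU-99A cells, read out with a cell viability assay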
Description: SANGER: Inhibition of human LU-99A cell growth in a cell viability assay.

KYSE-70 cell line = test: cells; type: functional, cell-based, Homo sapiens;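 also: cell viability assay read-out, with IC50 expressing suppression of KYSE-70 cell growth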
Description: SANGER: Inhibition of human KYSE-70 cell growth in a cell viability assay.

SIG-M5 = test: cells; type: functional, cell-based, Homo sapiens;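 also: cell viability assay read-out, measuring how strongly growth of cultured human SIG-M5 cells is inhibited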
Description: SANGER: Inhibition of human SIG-M5 cell growth in a cell viability assay.

TE-15 = test: cells; type: functional, cell-based, Homo sapiens;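 also: cell viability readout of growth inhibition in TE-15 cells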
Description: SANGER: Inhibition of human TE-15 cell growth in a cell viability assay.

SK-N-AS = test: cells; type: functional, cell-based, Homo sapiens;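 also: growth inhibition of human SK-N-AS cells, measured with a cell viability assay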
Description: SANGER: Inhibition of human SK-N-AS cell growth in a cell viability assay.

NCI-H524 = test: cells; type: functional, cell-based, Homo sapiens;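 also: growth inhibition of human NCI-H524 cells, read out through a cell viability assay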
Description: SANGER: Inhibition of human NCI-H524 cell growth in a cell viability assay.

NCI-H650 = test: cells; type: functional, cell-based, Homo sapiens;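 also: growth inhibition of NCI-H650 cells, read out by a viability assay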
Description: SANGER: Inhibition of human NCI-H650 cell growth in a cell viability assay.

GCT = test: cells; type: functional, cell-based, Homo sapiens;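 also: GCT cell line proliferation inhibition, read out with a cell viability assay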
Description: SANGER: Inhibition of human GCT cell growth in a cell viability assay.

AU565 = test: cells; type: functional, cell-based, Homo sapiens;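 also: cell viability assay measuring growth inhibition of human AU565 cells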
Description: SANGER: Inhibition of human AU565 cell growth in a cell viability assay.

CMK = test: cells; type: functional, cell-based, Homo sapiens;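 also: growth inhibition of CMK cells, read out as cell viability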
Description: SANGER: Inhibition of human CMK cell growth in a cell viability assay.

SCLC-21H = test: cells; type: functional, cell-based, Homo sapiens;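 also: growth inhibition of cultured human SCLC-21H cells, read out with a cell viability assay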
Description: SANGER: Inhibition of human SCLC-21H cell growth in a cell viability assay.

ARH-77 = test: cells; type: functional, cell-based, Homo sapiens;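 also: growth inhibition of ARH-77 cells, read out by a cell viability assay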
Description: SANGER: Inhibition of human ARH-77 cell growth in a cell viability assay.

LU-165 = test: cells; type: functional, cell-based, Homo sapiens
Description: SANGER: Inhibition of human LU-165 cell growth in a cell viability assay.

BC1 cell line = test: SANGER: Inhibition of human BC-1 cell growth in a cell viability assay.; type: functional, cell-based
BC-3 = test: cells; type: functional, cell-based, Homo sapiens;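 also: cell viability assay measuring growth inhibition of human BC-3 cells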
Description: SANGER: Inhibition of human BC-3 cell growth in a cell viability assay.

NCI-H345 = test: cells; type: functional, cell-based, Homo sapiens;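 also: growth inhibition of NCI-H345 cells measured with a cell viability assay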
Description: SANGER: Inhibition of human NCI-H345 cell growth in a cell viability assay.

L-540 = test: cells; type: functional, cell-based, Homo sapiens;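 also: growth inhibition of the human L-540 cell line, read out with a viability assay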
Description: SANGER: Inhibition of human L-540 cell growth in a cell viability assay.

NCI-H187 = test: cells; type: functional, cell-based, Homo sapiens;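 also: growth inhibition of NCI-H187 cells, read out as cell viability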
Description: SANGER: Inhibition of human NCI-H187 cell growth in a cell viability assay.

SJRH30 = test: cells; type: functional, cell-based, Homo sapiens;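 also: growth inhibition of human SJRH30 cells, read out with a cell viability assay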
Description: SANGER: Inhibition of human SJRH30 cell growth in a cell viability assay.

Compound: CN(C)C(=N)NC(=N)N [METFORMIN]
- pIC50 (SW780; Homo sapiens, SW780): 1.91
- pIC50 (EPLC-272H): < 1.70
- pIC50 (OVCAR-5; Homo sapiens, OVCAR-5): < 1.70
- pIC50 (SW13; Homo sapiens, SW13): 2.00
- pIC50 (U-251; Homo sapiens, U-251): 2.00
- pIC50 (LK-2; Homo sapiens, LK-2): 2.03
- pIC50 (RD; Homo sapiens, RD): < 1.70
- pIC50 (MKN-28; Homo sapiens, MKN-28): < 1.70
- pIC50 (CAKI-1; Homo sapiens, CAKI-1): < 1.70
- pIC50 (U2OS; Homo sapiens, U2OS): < 1.70
- pIC50 (BT-20; Homo sapiens, BT-20): 1.82
- pIC50 (C3A; Homo sapiens, C3A): 1.95
- pIC50 (DBTRG-05MG; Homo sapiens, DBTRG-05MG): 2.14
- pIC50 (Daoy; Homo sapiens, Daoy): < 1.70
- pIC50 (M059J; Homo sapiens, M059J): < 1.70
- pIC50 (NCI-H1793; Homo sapiens, NCI-H1793): 1.73
- pIC50 (SW1088; Homo sapiens, SW1088): < 1.70
- pIC50 (A673; Homo sapiens, A673): 1.72
- pIC50 (SKG-IIIa; Homo sapiens, SKG-IIIa): < 1.70
- pIC50 (NCI-H460; Homo sapiens, NCI-H460): < 1.70
- pIC50 (SCC-25; Homo sapiens, SCC-25): 1.92
- pIC50 (SW626; Homo sapiens, SW626): < 1.70

Compound: Cc1cc([N+](=O)[O-])ccc1NS(=O)(=O)c1cc(Cl)ccc1Cl
- pIC50 (SW780; Homo sapiens, SW780): 5.21
- pIC50 (CAL-12T; Homo sapiens, CAL-12T): 5.99
- pIC50 (GDM-1; Homo sapiens, GDM-1): 5.08
- pIC50 (RPMI-6666; Homo sapiens, RPMI-6666): 4.69
- pIC50 (OVCAR-5; Homo sapiens, OVCAR-5): 4.63
- pIC50 (SW13; Homo sapiens, SW13): 5.70
- pIC50 (U-251; Homo sapiens, U-251): 5.66
- pIC50 (LK-2; Homo sapiens, LK-2): 6.03
- pIC50 (NCI-H2030; Homo sapiens, NCI-H2030): 5.35
- pIC50 (RD; Homo sapiens, RD): 5.14
- pIC50 (MKN-28; Homo sapiens, MKN-28): 5.36
- pIC50 (CAKI-1; Homo sapiens, CAKI-1): 4.88
- pIC50 (U2OS; Homo sapiens, U2OS): < 4.49
- pIC50 (T-24; Homo sapiens, T-24): < 4.49
- pIC50 (PANC-03-27; Homo sapiens, PANC-03-27): 5.20
- pIC50 (BT-20; Homo sapiens, BT-20): 5.07
- pIC50 (LU-99A; Homo sapiens, LU-99A): 5.91
- pIC50 (C3A; Homo sapiens, C3A): 5.65
- pIC50 (KYSE-70 cell line; Homo sapiens, KYSE-70): 6.09
- pIC50 (SIG-M5; Homo sapiens, SIG-M5): 5.47
- pIC50 (DBTRG-05MG; Homo sapiens, DBTRG-05MG): 5.04
- pIC50 (TE-15; Homo sapiens, TE-15): 5.67
- pIC50 (Daoy; Homo sapiens, Daoy): 5.38
- pIC50 (M059J; Homo sapiens, M059J): 5.23
- pIC50 (SK-N-AS; Homo sapiens, SK-N-AS): 5.19
- pIC50 (NCI-H524; Homo sapiens, NCI-H524): 4.90
- pIC50 (NCI-H650; Homo sapiens, NCI-H650): 5.56
- pIC50 (GCT; Homo sapiens, GCT): 5.53
- pIC50 (NCI-H1793; Homo sapiens, NCI-H1793): < 4.49
- pIC50 (AU565; Homo sapiens, AU565): 5.63
- pIC50 (SW1088; Homo sapiens, SW1088): 4.91
- pIC50 (CMK; Homo sapiens, CMK): 5.32
- pIC50 (A673; Homo sapiens, A673): 5.52
- pIC50 (SCLC-21H; Homo sapiens, SCLC-21H): 5.31
- pIC50 (ARH-77; Homo sapiens, ARH-77): < 4.49
- pIC50 (LU-165; Homo sapiens, LU-165): < 4.49
- pIC50 (SKG-IIIa; Homo sapiens, SKG-IIIa): < 4.49
- pIC50 (BC1 cell line; Homo sapiens, BC1): 5.44
- pIC50 (NCI-H460; Homo sapiens, NCI-H460): 5.44
- pIC50 (BC-3; Homo sapiens, BC-3): 5.08
- pIC50 (NCI-H345; Homo sapiens, NCI-H345): 4.75
- pIC50 (SCC-25; Homo sapiens, SCC-25): 4.96
- pIC50 (L-540; Homo sapiens, L-540): 5.02
- pIC50 (SW626; Homo sapiens, SW626): 5.51
- pIC50 (NCI-H187; Homo sapiens, NCI-H187): 4.91
- pIC50 (SJRH30; Homo sapiens, SJRH30): 5.68

Compound: BLEOMYCIN
- pIC50 (SW780; sw780): 2.09
- pIC50 (CAL-12T; cal-12t): 6.59
- pIC50 (GDM-1; gdm-1): 6.64
- pIC50 (RPMI-6666; rpmi-6666): 6.35
- pIC50 (OVCAR-5; ovcar-5): 5.32
- pIC50 (SW13; sw13): 7.09
- pIC50 (U-251; u-251): 5.36
- pIC50 (LK-2; lk-2): 5.77
- pIC50 (NCI-H2030; nci-h2030): 5.28
- pIC50 (RD; rd): 3.98
- pIC50 (MKN-28; mkn-28): 8.97
- pIC50 (CAKI-1; caki-1): 6.21
- pIC50 (U2OS; u-2-os): 3.58
- pIC50 (T-24; t-24): 6.14
- pIC50 (PANC-03-27; panc-03-27): 6.50
- pIC50 (BT-20; bt-20): 5.56
- pIC50 (LU-99A; lu-99a): 8.37
- pIC50 (C3A; c3a): 6.53
- pIC50 (KYSE-70 cell line; kyse-70): 5.86
- pIC50 (SIG-M5; sig-m5): 6.23
- pIC50 (DBTRG-05MG; dbtrg-05mg): 5.25
- pIC50 (TE-15; te-15): 5.49
- pIC50 (Daoy; daoy): 7.08
- pIC50 (M059J; m059j): 5.42
- pIC50 (SK-N-AS; sk-n-as): 2.71
- pIC50 (NCI-H524; nci-h524): 3.72
- pIC50 (NCI-H650; nci-h650): 9.23
- pIC50 (GCT; gct): 5.30
- pIC50 (NCI-H1793; nci-h1793): 4.57
- pIC50 (AU565; au565): 5.69
- pIC50 (SW1088; sw1088): 3.09
- pIC50 (CMK; cmk): 4.83
- pIC50 (A673; a673): 4.98
- pIC50 (SCLC-21H; sclc-21h): 3.24
- pIC50 (ARH-77; arh-77): 6.98
- pIC50 (LU-165; lu-165): 4.38
- pIC50 (SKG-IIIa; skg-iiia): 3.86
- pIC50 (BC1 cell line; bc1): 5.41
- pIC50 (NCI-H460; nci-h460): 5.32
- pIC50 (BC-3; bc-3): 6.28
- pIC50 (NCI-H345; nci-h345): 3.09
- pIC50 (SCC-25; scc-25): 6.38
- pIC50 (L-540; l-540): 4.63
- pIC50 (SW626; sw626): 5.85
- pIC50 (NCI-H187; nci-h187): 2.06
- pIC50 (SJRH30; sjrh30): 6.38
